PMC5622107, “Small molecule inhibition of cGAS reduces interferon expression in primary macrophages from autoimmune mice” (Nature Communications, 2017)
Values joined by “and” are separate entries in the source; they are usually repeats but may differ in a detail not shown here. Identical values can stand only once. One block for each molecule: values may come before it.

Legend:
RAW 264.7 = assay: Cytotoxicity, CellTiter-Glo ATP quantitation at 72 h; assay type: cell-based; conditions: for LD50: RAW macrophages, 72 h, percent viability
Method: Small-molecule compounds were serially diluted to concentrations spanning the range tested in the response curves were added to 6.7 × 10^5 RAW-Blue macrophages plated 16 h prior in 96-well dishes, then harvested 72 h after compound addition. ATP was measured using CellTiter Glo Viability Assay (Promega) using 50 µM Tamoxifen (Sigma) as a positive control for cytotoxicity. Viability values were generated using vehicle (DMSO) or the first dose (RU.521) as 100% and Tamoxifen as 0%. Outliers were removed as described previously.

[1] = tested on: RAW KO-cGAS reporter cells; assay: RAW KO-cGAS reporter cells stimulated with cGAMP; assay type: cell-based, mouse
Method: (§1) The sequence and annealing conditions of the dsDNA used is described above. Typically, 0.4 µg or 0.6 µg of dsDNA was used to stimulate RAW-Lucia ISG-KO-TREX1/ISG-KO-cGAS or RAW-Lucia ISG cells, respectively, which equated to 90% of maximal luciferase activity observed. dsDNA stimulation of RAW macrophages and subsequent luciferase measurements were performed with or without the addition of small molecules at indicated concentrations in each figure, or with DMSO as vehicle control. For the dose curve experiments, serial dilutions of inhibitors were applied to 6.7 × 10^5 cells, plated in 24-well dishes, and co-stimulated with 0.4 µg of dsDNA. In subsequent experiments using inhibitors in RAW cells, the small molecules were used at concentrations representing the derived EC75 values, while co-stimulated with one of the following: 0.4 µg dsDNA, 50 nM 5′ppp-HP20 hairpin RNA (a kind gift from Dr Anna Pyle, Yale University; sequence located in Supplementary Table 5), 10 µM cGAMP, or 100 U ml^−1 murine recombinant Ifnb (R&D Systems). dsDNA was transfected using Lipofectamine LTX. 5′ppp-HP20 RNA was transfected using Lipofectamine 2000. Cells were harvested 24 h post-transfection, washed with PBS, and lysed in 1× Luciferase Cell Lysis Buffer (Pierce).

[2] = tested on: cGAS activity in dsDNA-stimulated RAW macrophages; assay: Cellular luciferase assay, interferon-responsive reporter in dsDNA-stimulated RAW macrophages; assay type: cell-based; conditions: Mus musculus, Macrophage, dsDNA-activated RAW cells
Method: as §1
The minimum numbers of biological and technical replicates for the luciferase assays were two and three, respectively. Analysis of luminescence values were evaluated for outliers (one standard deviation above and below the mean) for each biological replicate, and the resulting means were used to generate graphs in GraphPad Prism (v. 7.0c); where applicable, an unpaired t-test with Welch’s correction was used to compare the results of each individual compound to dsDNA or other stimulant. The experimental variances observed within control samples (untreated or vehicle) and treated samples were similar.

[3] = tested on: BMDM cells from Trex1 −/− mice; assay: IFNB1 expression by qRT-PCR in BMDMs from Trex1 −/− mice; assay type: cell-based, mouse; conditions: 24 h treatment at IC50, qRT-PCR
Text: C57BL/6 wild type and Trex1 ^−/− offspring from Trex1 ^+/− crosses (a kind gift from Dr Dan Stetson, University of Washington) were harvested at 6–8 weeks of age. Femurs and tibias were removed from age- and sex-matched mice. The ends were clipped and marrow pushed from bones via syringe. Clumps were broken apart via pipetting, rinsed, and pelleted in PBS, passed through a cell strainer, and plated in seven 100 mm petri dishes per mouse. Cells were matured in media described under the methods for cell lines with an additional 10 ng ml^−1 M-CSF (for a total of 20 ng ml^−1 M-CSF during the maturation period). On Day 7, cells were counted and re-plated at 5 × 10^5 cells ml^−1 in 100 mm petri dishes. BMDMs were maintained by adding an equal volume of media to each dish every 2 days after harvesting and performing a complete media change every 4 days after harvesting. IACUC protocols for humane termination of mice for Vanderbilt University were strictly followed.
BMDMs were incubated in the presence of DMSO or the various inhibitors, then harvested 24 h later. RNA was extracted using Trizol and chloroform. […] Real-time PCR against murine Actb1 and IFNB1 (see Supplementary Table 5 for primer sequences used) was carried out and the data was analyzed as previously described in the method section for cytokine analysis in RAW macrophages.

cGAS/dsDNA complex = biological target: T1, cGAS/dsDNA complex (Mus musculus, UniProt Q8C6L5); assay: Isothermal titration calorimetry, compound titrated into cGAS/dsDNA complex; assay type: binding
T1 construct: full-length (for high-throughput screening) and residues 147–507 (for structural study) of cGAS; His6-SUMO (N, cleaved yes); made in house; host or cells: E. coli BL21(DE3) RIL
Method: (§2) ITC measurements were performed at 25 °C using a MicroCal auto-iTC200 calorimeter (MicroCal, LLC). Purified truncated mouse cGAS was dialyzed against 40 mM HEPES buffer (pH 7.5) and 300 mM NaCl for 24 h at 4 °C. Dialysis led to some precipitation, which were removed through centrifugation followed by collection of the supernatant. The concentration of the protein in supernatant was measured using Pierce® BCA protein assay. The protein was flash frozen in liquid N2 and stored at −80 °C. For the ITC assay, the dialyzed protein was prediluted to 20 µM in the dialysis buffer and diluted to a final concentration of 10 µM in a final buffer containing 40 mM HEPES, 1% DMSO, 150 mM NaCl, 0.01% Tween-20 and + /− dsDNA 10 µM and + /− ATP or GTP 1 mM. Then, 2 μl RU.365 100 µM, dissolved in the buffer aforementioned, were injected into 0.2 ml of protein in the chamber every 150 s. Data for raw ITC and thermodynamic curves, each from one experiment, were downloaded after analysis using Affinimeter software and plotted using GraphPad Prism (7.01). The software calculates error bars as an indication of the contribution of the raw data noise that is determined from the integral of the standard deviation of the baseline during the injection.

apo-cGAS = biological target: T2, apo-cGAS (Mus musculus, UniProt Q8C6L5); assay: Isothermal titration calorimetry, cGAS in absence of dsDNA; assay type: binding
T2 construct: full-length (for high-throughput screening) and residues 147–507 (for structural study) of cGAS; His6-SUMO (N, cleaved yes); made in house; host or cells: E. coli BL21(DE3) RIL
Method: as §2

[4] = cGAS in presence of dsDNA, no ATP/GTP

T1 sequence (Q8C6L5 147-507, one chain of several): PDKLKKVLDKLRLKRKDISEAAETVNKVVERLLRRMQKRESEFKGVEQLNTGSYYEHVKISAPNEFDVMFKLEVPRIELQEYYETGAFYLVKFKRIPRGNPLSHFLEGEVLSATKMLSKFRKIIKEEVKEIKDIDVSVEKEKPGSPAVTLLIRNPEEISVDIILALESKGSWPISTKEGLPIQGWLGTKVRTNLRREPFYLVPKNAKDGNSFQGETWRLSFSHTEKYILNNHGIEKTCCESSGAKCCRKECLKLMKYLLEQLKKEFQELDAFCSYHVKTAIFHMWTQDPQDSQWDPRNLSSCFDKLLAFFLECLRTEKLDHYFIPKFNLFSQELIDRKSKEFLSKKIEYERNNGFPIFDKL
T2 sequence (Q8C6L5 147-507): as the sequence (Q8C6L5 147-507, one chain of several) above

IC50 [2]: 700 nM
T*ΔS (cGAS/dsDNA complex; cGAS in presence of dsDNA): -6.134 kcal/mol
rM (cGAS/dsDNA complex; cGAS in presence of dsDNA): 0.8071
ΔG (cGAS/dsDNA complex; cGAS in presence of dsDNA): -10.15 kcal/mol
ΔH (cGAS/dsDNA complex; cGAS in presence of dsDNA): -16.29 kcal/mol
Kd (cGAS/dsDNA complex; [4]): 36.2 nM
Compound: Cc1nn(-c2nc3ccc(Cl)c(Cl)c3[nH]2)c(O)c1C1OC(=O)c2ccccc21 (stereo not drawn) [RU320521, 3-[1-(6,7-dichloro-1H-benzimidazol-2-yl)-5-hydroxy-3-methyl-pyrazol-4-yl]-3H-isobenzofuran-1-one]
LD50 over cellular IC50 (RAW 264.7): 88 fold
LD50 (RAW 264.7; listed as RU.521): 62 µM
inhibition of reporter activity [1]: did not show any significant inhibition of reporter activity
IFNB1 expression [3]: reduced IFNB1 expression

Kd (apo-cGAS): 98.5 nM
T*ΔS (apo-cGAS): -1.511 kcal/mol
rM (apo-cGAS): 0.9384
ΔG (apo-cGAS): -9.559 kcal/mol
ΔH (apo-cGAS): -11.07 kcal/mol
IC50 [2]: 4980 nM
T*ΔS (cGAS/dsDNA complex; cGAS in presence of dsDNA): -4.504 kcal/mol
rM (cGAS/dsDNA complex; cGAS in presence of dsDNA): 0.9075
ΔG (cGAS/dsDNA complex; cGAS in presence of dsDNA): -9.813 kcal/mol
ΔH (cGAS/dsDNA complex; cGAS in presence of dsDNA): -14.32 kcal/mol
Kd (cGAS/dsDNA complex; [4]): 64.1 nM and 64 nM
Kd (cGAS/dsDNA complex; cGAS/dsDNA + 1 mM ATP): 104 nM
Kd (cGAS/dsDNA complex; cGAS/dsDNA + 1 mM GTP): 298 nM
T*ΔS (cGAS/dsDNA complex; cGAS/dsDNA + ATP 1 mM): -2.493 kcal/mol
rM (cGAS/dsDNA complex; cGAS/dsDNA + ATP 1 mM): 0.9605
ΔG (cGAS/dsDNA complex; cGAS/dsDNA + ATP 1 mM): -9.524 kcal/mol
ΔH (cGAS/dsDNA complex; cGAS/dsDNA + ATP 1 mM): -12.02 kcal/mol
T*ΔS (cGAS/dsDNA complex; cGAS/dsDNA + GTP 1 mM): -3.668 kcal/mol
rM (cGAS/dsDNA complex; cGAS/dsDNA + GTP 1 mM): 0.9257
ΔG (cGAS/dsDNA complex; cGAS/dsDNA + GTP 1 mM): -8.902 kcal/mol
ΔH (cGAS/dsDNA complex; cGAS/dsDNA + GTP 1 mM): -12.57 kcal/mol
Compound: Cc1nn(-c2nc3ccccc3[nH]2)c(O)c1C1OC(=O)c2ccccc21 (stereo not drawn) [RU166365]
LD50 over cellular IC50 (RAW 264.7): 9 fold
LD50 (RAW 264.7; listed as RU.365): 45 µM
